Measured values from patent US20250115598A1 (Anaxis Pharma Pty Ltd, priority 2021, published 2025).

Columns and labels:
[1] = molecular target: human MLKL (full length) (Homo sapiens (Human), UniProt Q8NB16); test: KINOMEscan binding assay, human MLKL (full length); conditions: KINOMEscan, Table 21; read-out: Human MLKL (full-length) (KD)
Procedure, shortened: (§1)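 Assay principle: test compound competes with immobilized bead ligand for kinase; kinase retained, then eluted, is counted by qPCR. Conditions were 1% DMSO final with 11 compound concentrations in 3-fold steps, 30,000 nM top for most. The Hill equation with slope −1 gave Kd.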

[2] = molecular target: mouse MLKL (full length) (Mus musculus (Mouse), UniProt Q9D2Y4); test: KINOMEscan binding assay, mouse MLKL (full length); conditions: Table 22
Sequence of mouse MLKL (full length) (Q9D2Y4 whole entry): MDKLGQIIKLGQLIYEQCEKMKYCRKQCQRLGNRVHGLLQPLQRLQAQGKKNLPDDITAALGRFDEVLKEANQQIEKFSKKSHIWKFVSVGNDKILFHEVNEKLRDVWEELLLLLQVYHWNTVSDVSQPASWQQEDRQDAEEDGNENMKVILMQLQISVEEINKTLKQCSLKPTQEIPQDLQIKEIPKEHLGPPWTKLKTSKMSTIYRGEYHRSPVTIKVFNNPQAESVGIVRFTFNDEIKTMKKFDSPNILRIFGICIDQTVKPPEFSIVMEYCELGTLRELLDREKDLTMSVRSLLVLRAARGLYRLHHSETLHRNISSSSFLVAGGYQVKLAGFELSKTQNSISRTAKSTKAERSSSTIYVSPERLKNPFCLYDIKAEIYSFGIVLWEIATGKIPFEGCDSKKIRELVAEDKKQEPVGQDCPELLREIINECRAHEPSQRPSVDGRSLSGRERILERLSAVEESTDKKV
Protocol: Binding affinity of the test compounds for human MLKL (full length), mouse MLKL (full length), human RIPK1 and human RIPK3 was determined using the KINOMEscan™ technology developed by DiscoverX (USA; http://www.discoverx.com). The assay was conducted according to manufacturer instructions.
Kinase assays. For most assays, kinase-tagged T7 phage strains were grown in parallel in 24-well blocks in an E. coli host derived from the BL21 strain. E. coli were grown to log-phase and infected with T7 phage from a frozen stock (multiplicity of infection=0.4) and incubated with shaking at 32° C. until lysis (90-150 minutes). The lysates were centrifuged (6,000×g) and filtered (0.2 μm) to remove cell debris. The remaining kinases were produced in HEK-293 cells and subsequently tagged with DNA for qPCR detection. […] The liganded beads were blocked with excess biotin and washed with blocking buffer (SeaBlock (Pierce), 1% BSA, 0.05% Tween 20, 1 mM DTT) to remove unbound ligand and to reduce non-specific phage binding. […] All reactions were performed in polypropylene 384-well plates in a final volume of 20 μL. […] The kinase concentration in the eluates was measured by qPCR.
An 11-point 3-fold serial dilution of each test compound was prepared in 100% DMSO at 100× final test concentration and subsequently diluted to 1× in the assay (final DMSO concentration=1%). Most Kos were determined using a compound top concentration=30,000 nM.
KD for each test compound was calculated with a standard dose-response curve using the Hill equation (equation (1)): […]
The Hill Slope was set to −1.
Curves were fitted using a non-linear least square fit with the Levenberg-Marquardt algorithm.

[3] = molecular target: human RIPK1 (Homo sapiens (Human), UniProt Q13546); test: KINOMEscan binding assay, human RIPK1; conditions: Table 21
Sequence of human RIPK1 (Q13546 whole entry): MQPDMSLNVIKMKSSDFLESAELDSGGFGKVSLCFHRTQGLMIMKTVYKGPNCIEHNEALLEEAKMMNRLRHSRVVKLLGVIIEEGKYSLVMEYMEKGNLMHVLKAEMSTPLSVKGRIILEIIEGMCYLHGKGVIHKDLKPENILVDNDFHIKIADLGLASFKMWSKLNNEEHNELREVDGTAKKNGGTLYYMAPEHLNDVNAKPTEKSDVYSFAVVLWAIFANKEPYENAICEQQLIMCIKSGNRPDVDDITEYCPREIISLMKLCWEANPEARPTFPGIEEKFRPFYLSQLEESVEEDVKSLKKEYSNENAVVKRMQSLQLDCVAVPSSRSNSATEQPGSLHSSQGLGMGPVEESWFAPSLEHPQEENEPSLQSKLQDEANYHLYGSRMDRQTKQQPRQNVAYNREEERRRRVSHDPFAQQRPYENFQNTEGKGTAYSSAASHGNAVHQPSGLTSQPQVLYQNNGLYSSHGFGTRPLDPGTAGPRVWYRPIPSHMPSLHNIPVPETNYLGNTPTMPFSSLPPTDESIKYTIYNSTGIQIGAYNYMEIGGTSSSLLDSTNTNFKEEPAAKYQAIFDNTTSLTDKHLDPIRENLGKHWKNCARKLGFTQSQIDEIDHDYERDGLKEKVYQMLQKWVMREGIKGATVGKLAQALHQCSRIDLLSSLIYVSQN
Procedure, shortened: as §1

[4] = molecular target: human RIPK3 (Homo sapiens (Human), UniProt Q9Y572); test: KINOMEscan binding assay, human RIPK3; conditions: Table 21
Sequence of human RIPK3 (Q9Y572 whole entry): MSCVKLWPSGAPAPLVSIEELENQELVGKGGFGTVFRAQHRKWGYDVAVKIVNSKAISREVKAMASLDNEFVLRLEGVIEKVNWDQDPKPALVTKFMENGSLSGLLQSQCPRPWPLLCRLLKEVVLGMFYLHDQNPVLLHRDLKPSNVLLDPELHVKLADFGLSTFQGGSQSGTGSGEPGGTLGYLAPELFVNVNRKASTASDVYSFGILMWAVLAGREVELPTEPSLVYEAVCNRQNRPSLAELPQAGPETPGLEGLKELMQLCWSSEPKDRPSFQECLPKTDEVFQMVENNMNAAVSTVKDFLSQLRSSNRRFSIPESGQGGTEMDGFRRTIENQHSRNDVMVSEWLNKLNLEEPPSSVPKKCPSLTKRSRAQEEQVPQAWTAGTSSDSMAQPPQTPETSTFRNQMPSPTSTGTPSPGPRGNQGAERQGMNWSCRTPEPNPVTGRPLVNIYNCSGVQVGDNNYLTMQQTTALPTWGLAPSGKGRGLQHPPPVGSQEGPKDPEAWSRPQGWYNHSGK
Procedure, shortened: as §1

[5] = system: Immortalised Mouse Dermal Fibroblasts (MDFs); test: Cellular assay: inhibition of TSI induced necroptosis, CellTitre-Glo viability; conditions: Mus musculus, Fibroblast; MDF, 3 hours TSI cocktail, Table 24; read-out: Inhibition of TSI-induced necroptosis (IC50 cell-based assay) in MDF
Procedure, shortened: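 Necroptosis induced for 3 h with TSI: rhTNF 100 ng/ml, Smac mimetic 500 nM, caspase inhibitor IDN-6556 10 μM. Mouse dermal fibroblasts had received compound (36 μM top, ten three-fold steps) 30 min beforehand. ATP-based viability scaled between untreated and TSI-only wells; IC50 taken as 4-parameter curve inflection.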

Sequence of human MLKL (full length) (Q8NB16 whole entry): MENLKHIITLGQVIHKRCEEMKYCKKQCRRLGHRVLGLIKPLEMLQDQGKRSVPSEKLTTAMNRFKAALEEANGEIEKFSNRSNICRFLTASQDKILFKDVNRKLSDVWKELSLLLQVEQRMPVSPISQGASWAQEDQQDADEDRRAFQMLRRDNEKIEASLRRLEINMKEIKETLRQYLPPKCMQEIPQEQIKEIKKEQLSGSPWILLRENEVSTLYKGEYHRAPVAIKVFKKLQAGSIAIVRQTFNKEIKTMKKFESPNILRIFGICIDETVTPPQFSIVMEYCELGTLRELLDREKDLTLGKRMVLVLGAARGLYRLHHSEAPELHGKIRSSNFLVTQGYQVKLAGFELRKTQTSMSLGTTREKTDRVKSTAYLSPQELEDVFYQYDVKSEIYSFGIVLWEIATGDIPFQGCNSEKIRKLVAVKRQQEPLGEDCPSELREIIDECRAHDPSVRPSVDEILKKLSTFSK

Kd [1] [nM]	Kd [2] [nM]	Kd [3] [nM]	Kd [4] [nM]	Structure (SMILES)	IC50 [5] [nM]
< 1	< 1	–	–	Nc1ncc(-c2cnn(C3CCOCC3)c2)c2occ(-c3ccc(NS(=O)(=O)C(F)F)c(OCc4ccc(F)cc4)c3)c12 [Compound 5, N-(4-(4-amino-7-(1-(tetrahydro-2H-pyran-4-yl)-1H-pyrazol-4-yl)furo[3,2-c]pyridin-3-yl)-2-((4-fluorobenzyl)oxy)phenyl)-1,1-difluoro-methanesulfonamide]	–
–	< 1	> 10000	> 10000	C[C@H](Oc1cc(-c2coc3c(-c4cnn(C5CCOCC5)c4)cnc(N)c23)ccc1NS(=O)(=O)C(F)F)c1ccc(F)cc1 [Compound 7, (S)-N-(4-(4-amino-7-(1-(tetrahydro-2H-pyran-4-yl)-1H-pyrazol-4-yl)furo[3,2-c]pyridin-3-yl)-2-(1-(4-fluoro-phenyl)eth-oxy)phenyl)-1,1-difluoro-methanesulfonamide]	–
< 1	< 1	> 10000	> 10000	C[C@H](Oc1cc(-c2coc3c(-c4cnn(C)c4)cnc(N)c23)ccc1NS(=O)(=O)C(F)F)c1ccc(F)cc1 [Compound 8, (S)-N-(4-(4-amino-7-(1-methyl-1H-pyrazol-4-yl)furo[3,2-c]pyridin-3-yl)-2-(1-(4-fluorophenyl)eth-oxy)phenyl)-1,1-difluoromethane-sulfonamide]	–
< 1	< 1	> 10000	> 10000	Cn1nc(-c2ccc(NS(=O)(=O)C(F)F)c(OCc3ccc(F)cc3)c2)c2c(N)ncc(-c3cnn(C4CCOCC4)c3)c21 [Compound 13, N-(4-(4-amino-1-methyl-7-(1-(tetrahydro-2H-pyran-4-yl)-1H-pyrazol-4-yl)-1H-pyrazolo[4,3-c]pyridin-3-yl)-2-((4-fluoro-benzyl)oxy)phenyl)-1,1-difluoromethane-sulfonamide]	–
< 1	< 1	> 10000	> 10000	C[C@H](Oc1cc(-c2nn(C)c3c(-c4cnn(CCO)c4)cnc(N)c23)ccc1NS(=O)(=O)C(F)F)c1ccc(F)cc1 [Compound 15, (S)-N-(4-(4-amino-7-(1-(2-hydroxyethyl)-1H-pyrazol-4-yl)-1-methyl-1H-pyrazolo[4,3-c]pyridin-3-yl)-2-(1-(4-fluorophenyl)ethoxy)phenyl)-1,1-difluoromethanesulfonamide]	–
< 1	< 1	–	–	C[C@H](Oc1cc(-c2nn(C)c3c(-c4cnn(C5CCOCC5)c4)cnc(N)c23)ccc1NS(=O)(=O)C(F)F)c1ccc(F)cc1 [Compound 19]	< 1000
< 1	< 1	> 10000	> 10000	C[C@H](Oc1cc(-c2nn(C)c3c(-c4cnn(C)c4)cnc(N)c23)ccc1NS(=O)(=O)C(F)F)c1ccc(F)cc1 [Compound 20, (S)-N-(4-(4-amino-1-methyl-7-(1-methyl-1H-pyrazol-4-yl)-1H-pyrazolo[4,3-c]pyridin-3-yl)-2-(1-(4-fluorophenyl)ethoxy)phenyl)-1,1-difluoromethanesulfonamide]	–
–	< 1	> 10000	> 10000	C[C@H](Oc1cc(-c2nn(C)c3c(-c4cnn(CCN5CCN(C)CC5)c4)cnc(N)c23)ccc1NS(=O)(=O)C(F)F)c1ccc(F)cc1 [Compound 60, (S)-N-(4-(4-amino-1-methyl-7-(1-(2-(4-metyhlpiperazin-1-yl)ethyl)-1H-pyrazol-4-yl)-1H-pyrazolo[4,3-c]pyridin-3-yl)-2-(1-(4-fluorophenyl)ethoxy)phenyl)-1,1-difluoromethanesulfonamide]	–
